Experimental data reported in US8691522B2, “Composition comprising extracellular membrane vesicles derived from indoor air, and use thereof” (priority 2009, dated 2014).

Legend:
[1] = tested on: mouse macrophages (RAW 264.7); experiment: In vitro innate immunity: cytokine secretion (ELISA) of macrophages treated with indoor dust-derived vesicles; type: cell-based; conditions: Dust-EV treated with PMB or heat, vs Dust-EV alone
Method: Indoor dust was solubilized in PBS to separate extracellular vesicles and soluble components. The induction of innate immune responses by the vesicles and the water-soluble components was examined in vitro by applying them to mouse macrophages and measuring cytokine levels in the culture media.
(§1) In detail, mouse macrophages (RAW264.7) were seeded at a density of 1×10^5 cells/well into 24 well plates and maintained for 24 hours. After the cells were washed with PBS, a fresh DMEM medium was added to the cells which were then incubated for 15 hours with dust-derived extracellular vesicles (Dust-EV, 0.1 μg/ml) and soluble components (Dust-soluble, 8 μg/ml), separately. The culture media were harvested and centrifuged at 4° C. and 800×g for 10 min. Cytokines in the supernatant were quantitatively analyzed by enzyme linked immunosorbent assay (ELISA).
In addition, cytokine levels were measured after the cells were treated with 100 ng/ml and 1 μg/ml of the extracellular vesicles in the same manner as described above.
It is well known that LPS, found in the outer membrane of Gram-negative bacteria, acts as an endotoxin to induce innate immune responses and that it has been detected in indoor dust.

[2] = tested on: C57BL/6 mice; experiment: In vivo acquired immune response to repetitive intranasal Dust-EV with or without PMB; design: species or system mouse
Method: C57BL/6 mice (6 weeks old, female, four in each group) were intranasally administered twice a week for three weeks with 1 μg of indoor dust-derived extracellular vesicles in 30 μl of PBS. In addition, the vesicles were administered together with PMB so as to examine the presence and role of LPS therein. Twenty four hours after injection, clinical analysis was performed.
Moreover, the immunological mechanism associated with the onset of lung inflammation was evaluated. Immune cells were separated from local lymph nodes and analyzed for the expression levels of IFN-γ and IL-17.

[3] = tested on: mouse macrophages (RAW 264.7); experiment: In vitro innate immune response: cytokine secretion (ELISA) of macrophages treated with HDM-EV; type: cell-based; conditions: house dust mite-derived vesicles with Polymyxin B
Method: as §1, with “grown” for “maintained”, “100 ng, 1 μg and 10 μg of house dust mite-derived” for “dust-derived”, “(HDM-EV).” for “(Dust-EV, 0.1 μg/ml) and soluble components (Dust-soluble, 8 μg/ml), separately.”

[4] = vesicles in combination with PMB, ELISA

## Polymyxin B [PMB]
[1]
  vesicle-induced secretion of IL-6: significantly reduced
  vesicle-induced secretion of TNF-α: significantly decreased
[2]; Dust-EV administered together with PMB (Dust-EV+PMB), in contrast to vesicles alone
  count of inflammatory cells in BAL fluid: low
[2]; Dust-EV in the presence of PMB
  count of T cells secreting IFN-γ and IL-17 in local lymph nodes: reduced the count of T cells including those secreting IFN-γ and IL-17 in local lymph nodes
[2]; [4]
  level of IgG1 specific for indoor dust-derived vesicles in sera: reduced to almost the same as those of the PBS group
  level of IgG2a specific for indoor dust-derived vesicles in sera: reduced to almost the same as those of the PBS group
[3]
  vesicle-induced secretion of inflammatory mediators: suppressed
